“And” between values parts separate entries of the source, which are not always exact repeats. Identical values can stand only once. A value given as a limit tells only on which side of the number the result lay.

Data set [1] in a line: In vitro liver microsome assay, mouse. The data set is classed as in vitro ADME. To be noted: pooled liver microsomes.
The nature of data set [2]: In vitro liver microsome assay, human. The data set is classed as in vitro ADME. To be noted: pooled liver microsomes.
Data set [3] relates to T. b. brucei (strain BF427). Nature of the data set: T. brucei growth inhibition assay. To be noted: T. b. brucei BF427, 48 h, Alamar Blue. It is filed as cell-based.
The test system of data set [4] is CRL-8155 (human lymphoblasts). The experiment in a line: Cytotoxicity in mammalian cells, CRL-8155. To be noted: 48 h, growth inhibition by 50%.
Data set [5] can be described thus: Brain time-course experiment of compound 57 after oral dosing. The data set is classed as in vivo. The conditions noted are these: mice, single oral dose 50 mg/kg.
Data set [6] can be described thus: Mouse oral pharmacokinetics. The data set is classed as in vivo. To be noted: mice, 50 mg/kg oral, Tween 80/EtOH/DMSO vehicle.
Data set [7] concerns HepG2 cells (human hepatocellular carcinoma). The experiment in a line: Cytotoxicity in mammalian cells, HepG2. The data set is classed as cell-based. The conditions noted are these: human hepatocytes, 48 h, growth inhibition by 50%.
Data set [8] in a line: Efficacy PK in chronic model. It is filed as in vivo, mice. The conditions noted are these: 50 mg/kg po b.i.d., prior to dose 15 (predose).
Data set [9] in a line: Efficacy PK in acute model. The data set is classed as in vivo, mice. To be noted: 50 mg/kg po b.i.d., prior to dose 7 (predose).
The nature of data set [10]: Brain:plasma compound concentration measurements in mice, 1 h post ip dose. The data set is classed as in vivo. To be noted: single ip dose 5 mg/kg, 1 h postdose.

As for `O=C(Nc1ccc2oc(-c3ccccc3)nc2c1)c1ccccc1` [Compound 30], the values for the half-life at 1.5 μM in data set [1] and in [2] were 10 to 20 min and no less than 60 min, respectively.
For `O=C(Nc1ccc2oc(-c3ccccc3)nc2c1)N1CCCCC1` [Compound 32] the same measures were 10 to 20 min and no less than 60 min.
`O=C(Nc1ccc2sc(-c3ccccc3)nc2c1)N1CCCC1` [Compound 38] yielded a half-life at 1.5 μM in data set [1] greater than 20 min.
In turn, `O=C(Nc1ccc2sc(-c3ccccc3)nc2c1)N1CCCCC1` [Compound 40] yielded a half-life at 1.5 μM in data set [1] greater than 20 min.
With `O=C(Nc1ccc2sc(-c3cccc(F)c3)nc2c1)N1CCN(C(=O)Nc2ccc3sc(-c4cccc(F)c4)nc3c2)CC1` [Compound 49], the “T. brucei EC50” value in data set [3] was “No activity was detected”.
Regarding `O=C(Nc1ccc2sc(-c3ccc(F)c(F)c3)nc2c1)N1CC[C@H](F)C1` [Compound 57, (S)-2-(3,4-Difluorophenyl)-5-(3-fluoro-N-pyrrolidylamido)-benzothiazole], in data set [4], the “CRL-8155 EC50” value was “no detectable toxicity”. In addition, the “Cmax, brain” value in [5] stood at 54.84 ± 4.64 µM. The “[compd]brain” value in data set [5] (24 h) was “submicromolar”; in [10], 9.07 µM and 9.07 ± 3.973 µM. In addition, the “[compd]plasma” value in data set [5] (24 h, LLQ is 0.010 μM, 50 mg/kg) is listed as “undetectable”. The “percent of Cmax remaining at the 24 h time point” value in [6] is given as “Less than 1%”. For the same molecule, in data set [7], the “HepG2 EC50” value was “no detectable toxicity”. Moreover, the average plasma level amounted to 15.8 ± 8.7 µM in data set [8] and 9.1 ± 7.6 µM in data set [9].
For the molecule `O=C(Nc1ccc2sc(-c3ccc(F)c(F)c3)nc2c1)N1C[C@@H](F)[C@H](F)C1` [Compound 59], in [6], the “percent of Cmax remaining at the 24 h time point” value was determined as 34% and the “percent of Cmax remaining at the 32 h time point” value was greater than 17%.
